We go through one compound from patent publication US20210244735A1, “COMPOSITIONS AND METHODS FOR TREATING MYELOFIBROSIS” (Impact Biomedicines, Inc., priority 2010, published 2021).

The series addresses human CYP3A4 (Homo sapiens, UniProt P08684). As to the kind of experiment: In vitro evaluations of CYP3A4 metabolism and inhibition. The class given is in vitro ADME.

Sequence of human CYP3A4 (P08684 whole entry): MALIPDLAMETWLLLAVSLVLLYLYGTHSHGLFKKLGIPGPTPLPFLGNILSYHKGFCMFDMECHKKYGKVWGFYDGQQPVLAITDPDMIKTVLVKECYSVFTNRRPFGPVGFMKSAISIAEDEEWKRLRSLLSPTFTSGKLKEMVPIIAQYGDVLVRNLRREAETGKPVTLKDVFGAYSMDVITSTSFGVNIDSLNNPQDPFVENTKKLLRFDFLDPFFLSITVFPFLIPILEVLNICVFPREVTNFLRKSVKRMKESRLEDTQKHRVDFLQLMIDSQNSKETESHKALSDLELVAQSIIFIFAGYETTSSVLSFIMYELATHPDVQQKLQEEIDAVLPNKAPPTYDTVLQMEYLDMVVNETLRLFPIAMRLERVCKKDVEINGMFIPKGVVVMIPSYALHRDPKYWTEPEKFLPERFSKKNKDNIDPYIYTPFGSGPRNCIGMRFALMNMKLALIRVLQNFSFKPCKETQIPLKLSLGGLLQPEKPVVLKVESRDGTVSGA

Turning to `Cc1cnc(Nc2ccc(OCCN3CCCC3)cc2)nc1Nc1cccc(S(=O)(=O)NC(C)(C)C)c1` [N-tert-butyl-3-[(5-methyl-2-{[4-(2-pyrrolidin-1-ylethoxy)phenyl]amino}pyrimidin-4-yl)amino]benzenesulfonamide], the CYP3A4 inhibition result (in vitro data) is “inhibits CYP3A4 in a time-dependent fashion”. Further, the metabolism result (in vitro evaluations) is recorded as “metabolized by human CYP3A4”.
